# Measurements reported in patent publication US11358956B2, “Compounds containing polysubstituted benzo[d][1,3]oxathiole, benzo[d][1,3]oxathiole 3-oxide or benzo[d][1,3]oxathiole 3,3-dioxide and methods/uses thereof as agonists of G protein-coupled receptor 119” (PRAMANA PHARMACEUTICALS INC., priority 2017, dated 2022).
# pEC50: −log10 of the molar value. Where two headings read alike, the source gives them in different places.
# What was measured:
# human GPR119 receptor [1] = biological target: T1, human GPR119 receptor (Homo sapiens, UniProt Q8TDV5); test: LANCE Ultra cAMP assay: stimulation of GPR119-mediated cAMP production in CHO cells stably expressing human GPR119 receptor; assay type: cell-based; settings: read-out: % cAMP Max. relative to forscolin
# T1 construct: host or cells: CHO
# T1 sequence (Q8TDV5 1-335): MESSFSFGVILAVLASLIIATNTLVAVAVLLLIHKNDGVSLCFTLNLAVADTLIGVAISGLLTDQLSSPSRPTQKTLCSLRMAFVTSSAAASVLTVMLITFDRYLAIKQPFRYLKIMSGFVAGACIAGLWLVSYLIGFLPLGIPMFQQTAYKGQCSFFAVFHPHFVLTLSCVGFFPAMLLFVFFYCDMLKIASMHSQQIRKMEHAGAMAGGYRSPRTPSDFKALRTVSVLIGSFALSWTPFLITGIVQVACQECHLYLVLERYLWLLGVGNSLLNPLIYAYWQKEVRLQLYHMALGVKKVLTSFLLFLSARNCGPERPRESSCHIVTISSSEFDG
# human GPR119 receptor [2] = biological target: T1, human GPR119 receptor; test: as above; assay type: cell-based
# Description: The potency of GPR119 receptor agonists was assessed by measuring the stimulation of GPR119-mediated cAMP production with LANCE Ultra cAMP assay (Perkin Elmer, TRF0264) in CHO cells stably expressing human GPR119 receptor (Chantest, cat. #A633). CHO-GPR119 cells were cultured in DMEM/F12 medium supplemented with 10% FBS and 1% NEAA at 37° C., 5% CO2, aliquoted and frozen in liquid nitrogen.
# For assay, cells were thawed in a water bath at 37° C., washed in Hank's Balanced Salt Solution (HBSS) and resuspended in Stimulation Buffer 1 (SB1) for 30 min: 5 mM HEPES, pH 7.2-7.4, 0.1% BSA in HBSS. […] The ULight-anti-cAMP antibody (Perkin Elmer, TRF0264) was added to the cell suspension making Mix [Cell suspension/4× ULight-anti-cAMP antibodies]. The resulting cell suspension Mix was plated to 384-well assay plates (Corning, white low volume, #3674) 5 µL/well. The assay plate was centrifuged 200 g, 5 sec.
# Serial dilution (100×) of tested compounds were prepared in DMSO in the range of from 30 nM to 1 mM with half-log step in 384-well plates (Greiner, 781280) using Biomek 2000. 10 test concentrations in two repeats were prepared for each CRC. It was diluted 50 times in SB1 and each tested concentration was added to cells in the assay plate—5 µL/well. The assay plate was incubated 30 minutes at room temperature on a shaker, 250 rpm to allow GPR119 receptor stimulation. The cAMP level was determined according to the standard kit supplier protocol (PerkinElmer, cat. #TRF0264).
# The stock solution of the Eu-cAMP tracer (Perkin Elmer, TRF0264) was diluted 1:100 in cAMP Detection Buffer (Perkin Elmer, TRF0264), making 2× working concentration and added to the assay plate, 10 μL per well. Assay plate was centrifuged 180 g, 1 sec. Then the assay plate was incubated for 60′ at room temperature on shaker, 250 rpm to allow cAMP detection. The TR-FRET signal was measured at Ex-340 nm/Em-615 and Ex-340 nm/Em-665 nm on the reader Tecan M1000. 0% of cAMP stimulation corresponds to the cells with DMSO only, 100% of cAMP stimulation corresponds to the cells with […] Forskolin. The EC50 value defined as the concentration of the drug that gives half-maximal response, were calculated using GraphPad Prizm 5.0 software with forskolin was used as references at each test. Entries 1-17 in Table 2A and entries 1-14 in Table 2B show the biological activity of certain representative compounds using the protocol as described above.
# [3] = Table 2C entries 1-4, modified protocol, 500 cells/well
# [4] = Table 2A entries 1-17, protocol as described (800,000 cells/mL suspension), CHO-GPR119 cells
Structure (SMILES),Emax (human GPR119 receptor [1]; [3]) [%],pEC50 (human GPR119 receptor [2]; [3]),"Emax (human GPR119 receptor [1]; Table 2A entries 1-17, protocol as described, 100% = cells with Forskolin, 0% = DMSO only) [%]",pEC50 (human GPR119 receptor [2]; [4])
"O=S1(=O)c2ccc(-c3ccc(OCC4CCN(c5ncc(Cl)cn5)CC4)c(F)c3)cc2OC12CCCCC2 [Example C-11, 5-chloro-2-(4-{[4-(3,3-dioxidospiro[1,3-benzoxathiole-2,1′-cyclohexan]-6-yl)-2-fluorophenoxy]methyl}piperidin-1-yl)pyrimidine]",25,7.48,–,–
"O=C(O)CN1CCC(COc2ccc(-c3ccc4c(c3)OCS4(=O)=O)cc2F)CC1 [Example A-23, 2-(4-((4-(3,3-Dioxido-2H-benzo[d][1,3]oxathiol-6-yl)-2-fluorophenyoxy) Methyl)-piperidin-1-yl)acetic Acid]",–,–,66,5.15
"CC1(C)Oc2cc(-c3ccc(OCC4CCN(c5ncc(Cl)cn5)CC4)c(F)c3)ccc2S1(=O)=O [Example C-5, 5-chloro-2-(4-{[4-(2,2-dimethyl-3,3-dioxido-1,3-benzoxathiol-6-yl)-2-fluorophenoxy]methyl}piperidin-1-yl)pyrimidine]",81,7.16,–,–
NCC(=O)N1CCC(COc2ccc(-c3ccc4c(c3)OCS4(=O)=O)cc2F)CC1 [Example A-17],–,–,–,5.00
NC(=O)N1CCC(COc2ccc(-c3ccc4c(c3)OCS4(=O)=O)cc2F)CC1 [Example A-20],–,–,–,5.00
"O=S1(=O)c2ccc(-c3ccc(OCC4CCN(c5ncc(Cl)cn5)CC4)c(F)c3)cc2OC12CCCC2 [Example C-8, 5-chloro-2-(4-{[4-(3,3-dioxidospiro[1,3-benzoxathiole-2,1′-cyclopentan]-6-yl)-2-fluorophenoxy]methyl}piperidin-1-yl)pyrimidine]",66,6.94,–,–
"O=S1(=O)c2ccc(-c3ccc(OCC4CCN(c5ncc(Cl)cn5)CC4)c(F)c3)cc2OC12CCC2 [Example C-14, 5-chloro-2-(4-{[4-(3,3-dioxidospiro[1,3-benzoxathiole-2,1′-cyclobutan]-6-yl)-2-fluorophenoxy]methyl}piperidin-1-yl)pyrimidine]",67,7.53,–,–
